{
  "source": "ChEMBL document CHEMBL6177983",
  "about": "“PSMA-Guided PROTAC Degraders for Tumor-Specific Protein Degradation in Prostate Cancer” (J Med Chem, 2025)",
  "key": {"[1]": {"biological_target": "T1, von Hippel-Lindau disease tumor suppressor/Androgen receptor (Homo sapiens, UniProt P10275+P40337)", "T1 sequence (P10275 whole entry, looked up)": "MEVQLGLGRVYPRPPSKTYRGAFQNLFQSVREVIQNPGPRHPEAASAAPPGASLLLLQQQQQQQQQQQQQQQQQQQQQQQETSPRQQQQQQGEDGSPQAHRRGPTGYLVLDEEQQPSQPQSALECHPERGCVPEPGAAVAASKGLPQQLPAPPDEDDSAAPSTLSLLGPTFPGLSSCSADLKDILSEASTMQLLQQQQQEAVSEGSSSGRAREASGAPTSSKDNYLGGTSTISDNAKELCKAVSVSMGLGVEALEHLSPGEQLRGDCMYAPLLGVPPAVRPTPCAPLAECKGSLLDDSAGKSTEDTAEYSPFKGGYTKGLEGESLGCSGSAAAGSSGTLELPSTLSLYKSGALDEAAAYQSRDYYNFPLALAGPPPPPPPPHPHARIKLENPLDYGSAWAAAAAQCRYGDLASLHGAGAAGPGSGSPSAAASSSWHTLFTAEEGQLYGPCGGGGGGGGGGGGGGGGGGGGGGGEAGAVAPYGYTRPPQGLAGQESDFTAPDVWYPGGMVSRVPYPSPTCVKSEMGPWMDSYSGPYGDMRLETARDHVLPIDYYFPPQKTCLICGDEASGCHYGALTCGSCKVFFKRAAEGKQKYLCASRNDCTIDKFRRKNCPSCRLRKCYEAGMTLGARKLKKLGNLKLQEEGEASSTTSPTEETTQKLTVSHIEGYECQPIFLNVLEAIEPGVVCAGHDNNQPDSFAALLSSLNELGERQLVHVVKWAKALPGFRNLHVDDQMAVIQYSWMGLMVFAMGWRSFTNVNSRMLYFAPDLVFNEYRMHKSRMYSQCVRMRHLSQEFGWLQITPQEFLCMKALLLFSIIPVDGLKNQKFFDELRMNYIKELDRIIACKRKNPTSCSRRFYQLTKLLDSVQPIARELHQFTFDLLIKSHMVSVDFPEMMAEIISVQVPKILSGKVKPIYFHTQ", "T1 sequence (P40337 whole entry, looked up)": "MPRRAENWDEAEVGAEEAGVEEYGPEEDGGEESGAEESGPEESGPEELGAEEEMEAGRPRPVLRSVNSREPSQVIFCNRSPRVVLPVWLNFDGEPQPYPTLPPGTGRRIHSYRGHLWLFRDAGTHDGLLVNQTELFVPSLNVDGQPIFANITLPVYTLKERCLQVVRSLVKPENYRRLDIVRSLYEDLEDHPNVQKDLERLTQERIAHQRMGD", "assay": "In vivo PROTAC activity at AR/VHL in BALB/c mouse xenografted with human LNCaP cells assessed as reduction in AR level in tumor at 1 mmol/L, iv measured at 48 hrs by Western blot analysis", "type": "functional, organism-based"}, "[2]": {"biological_target": "T1, von Hippel-Lindau disease tumor suppressor/Androgen receptor", "assay": "In vivo PROTAC activity at AR/VHL in BALB/c mouse xenografted with human LNCaP cells assessed as reduction in AR level in tumor at 1 mmol/L, iv measured at 72 hrs by Western blot analysis", "type": "functional, organism-based"}, "LNCaP [3]": {"system": "LNCaP", "assay": "animal or person", "details": "Mus musculus, po, 504 h, read-out: TGI", "description": "Antitumor activity against human LNCaP cells xenografted in BALB/c mouse assessed as tumor growth inhibition at 10 mg/kg, po administered every day for 21 days"}, "VCaP": {"system": "VCaP", "assay": "Cytotoxicity against human VCaP cells assessed as cell viability incubated for 72 hrs by CCK-8 assay", "type": "functional, cell-based"}, "LNCaP [4]": {"system": "LNCaP", "assay": "Cytotoxicity against human LNCaP cells assessed as cell viability incubated for 72 hrs by CCK-8 assay", "type": "functional, cell-based"}, "CWR22R": {"system": "CWR22R", "assay": "Cytotoxicity against human 22Rv1 cells assessed as cell viability incubated for 72 hrs by CCK-8 assay", "type": "functional, cell-based"}, "HEK-293T": {"system": "HEK-293T", "assay": "Cytotoxicity against HEK293T cells assessed as cell viability incubated for 72 hrs by CCK-8 assay", "type": "toxicity, cell-based", "details": "human"}, "DU-145": {"system": "DU-145", "assay": "Cytotoxicity against human DU-145 cells assessed as cell viability incubated for 72 hrs by CCK-8 assay", "type": "functional, cell-based"}, "J82": {"system": "J82", "assay": "Cytotoxicity against human J82 cells assessed as cell viability incubated for 72 hrs by CCK-8 assay", "type": "functional, cell-based"}, "LNCaP [5]": {"system": "LNCaP", "assay": "Antitumor activity against human LNCaP cells xenografted in BALB/c mouse assessed as tumor growth inhibition at 0.51 mmol/L, iv administered every day for 21 days", "type": "functional", "details": "504 h, time 21 day, read-out: TGI"}, "LNCaP [6]": {"system": "LNCaP", "assay": "Antitumor activity against human LNCaP cells xenografted in BALB/c mouse assessed as tumor growth inhibition at 1.02 mmol/L, iv administered every day for 21 days", "type": "functional", "details": "504 h, time 21 day, read-out: TGI"}, "Mus musculus": {"system": "Mus musculus", "assay": "In vivo PROTAC activity at BRD4/VHL in BALB/c mouse xenografted with human LNCaP cells assessed as reduction in AR level in tumor at 1 mmol/L, iv measured for 3 days by Western blot analysis", "type": "functional, organism-based", "details": "time 3.0 day"}},
  "note": "Active and inactive are the calls of the source. No cut-off for these calls is given here.",
  "data": [
    {"molecule": "Cc1ncsc1-c1ccc(CNC(=O)[C@@H]2C[C@@H](O)CN2C(=O)[C@@H](NC(=O)CCCCCCCCCNC(=O)c2ccc(C(=O)N[C@H]3C(C)(C)[C@H](Oc4ccc(C#N)c(Cl)c4)C3(C)C)cc2)C(C)(C)C)cc1", "values": [
      {"measurement": "Activity", "setting": "[1]", "value": "Active"},
      {"measurement": "Activity", "setting": "[2]", "value": "Active"}
    ]},
    {"molecule": "CNC(=O)c1ccc(N2C(=S)N(c3ccc(C#N)c(C(F)(F)F)c3)C(=O)C2(C)C)cc1F", "note": "[ENZALUTAMIDE]", "values": [
      {"measurement": "inhibition in vivo at 10 mg/kg", "setting": "LNCaP [3]", "value": 59.5, "unit": "%"}
    ]},
    {"molecule": "Cc1ncsc1-c1ccc([C@H](C)NC(=O)[C@@H]2C[C@@H](O)CN2C(=O)[C@@H](NC(=O)COCCCOCCNC(=O)C[C@@H]2N=C(c3ccc(Cl)cc3)c3c(sc(C)c3C)-n3c(C)nnc32)C(C)(C)C)cc1", "values": [
      {"measurement": "Activity", "setting": "VCaP", "value": "Active"},
      {"measurement": "Activity", "setting": "LNCaP [4]", "value": "Active"},
      {"measurement": "Activity", "setting": "CWR22R", "value": "Active"},
      {"measurement": "Activity", "setting": "HEK-293T", "value": "Toxic"},
      {"measurement": "Activity", "setting": "DU-145", "value": "Active"},
      {"measurement": "Activity", "setting": "J82", "value": "Active"},
      {"measurement": "inhibition in vivo at 510 µM", "setting": "LNCaP [5]", "value": 56.2, "unit": "%"},
      {"measurement": "inhibition in vivo at 1020 µM", "setting": "LNCaP [6]", "value": 65.2, "unit": "%"},
      {"measurement": "Activity", "setting": "Mus musculus", "value": "Active"}
    ]}
  ]
}
